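Step 1: Grow cells in 96-well plates. Step 2: Expose to compound for 48 hours at 5 concentrations. Step 3: Interpolate endpoints linearly; if unreached, use highest concentration. GI50 = concentration required for 50% inhibition of growth. Definition used: TGI = concentration required for complete inhibition of growth.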
Assays:
Test in all cases: NCI tumour cell line growth inhibition, 48 h
OVCAR-3 ovarian = tested on: OVCAR-3 ovarian
MDA-N = tested on: MDA-N
KM12 colon = tested on: KM12 colon
786-0 renal = tested on: 786-0 renal
NCI-H23 lung = tested on: NCI-H23 lung
HT29 colon = tested on: HT29 colon
SF-295 CNS = tested on: SF-295 CNS
UACC-257 melanoma = tested on: UACC-257 melanoma
TK-10 renal = tested on: TK-10 renal
OVCAR-8 ovarian = tested on: OVCAR-8 ovarian
UACC-62 melanoma = tested on: UACC-62 melanoma
BT-549 breast = tested on: BT-549 breast
NCI/ADR-RES ovarian = tested on: NCI/ADR-RES ovarian
SNB-19 CNS = tested on: SNB-19 CNS
MCF7 breast = tested on: MCF7 breast
K-562 leukemia = tested on: K-562 leukemia
OVCAR-5 ovarian = tested on: OVCAR-5 ovarian
LOX IMVI melanoma = tested on: LOX IMVI melanoma
HCC-2998 colon = tested on: HCC-2998 colon
MOLT-4 leukemia = tested on: MOLT-4 leukemia
SK-MEL-28 melanoma = tested on: SK-MEL-28 melanoma
NCI-H226 lung = tested on: NCI-H226 lung
SK-MEL-2 melanoma = tested on: SK-MEL-2 melanoma
SW-620 colon = tested on: SW-620 colon
NCI-H522 lung = tested on: NCI-H522 lung
DU-145 prostate = tested on: DU-145 prostate
EKVX NSCLC = tested on: EKVX NSCLC
M14 melanoma = tested on: M14 melanoma
MDA-MB-435 = tested on: MDA-MB-435
HCT-15 colon = tested on: HCT-15 colon
RXF 393 renal = tested on: RXF 393 renal
SF-268 CNS = tested on: SF-268 CNS
SK-MEL-5 melanoma = tested on: SK-MEL-5 melanoma
MALME-3M melanoma = tested on: MALME-3M melanoma
NCI-H460 lung = tested on: NCI-H460 lung
HL-60(TB) leukemia = tested on: HL-60(TB) leukemia
SF-539 CNS = tested on: SF-539 CNS
HOP-62 NSCLC = tested on: HOP-62 NSCLC
OVCAR-4 ovarian = tested on: OVCAR-4 ovarian
HOP-92 NSCLC = tested on: HOP-92 NSCLC
U251 CNS = tested on: U251 CNS
HCT-116 colon = tested on: HCT-116 colon
UO-31 renal = tested on: UO-31 renal
PC-3 prostate = tested on: PC-3 prostate
IGROV1 ovarian = tested on: IGROV1 ovarian
CCRF-CEM leukemia = tested on: CCRF-CEM leukemia
ACHN renal = tested on: ACHN renal
COLO 205 colon = tested on: COLO 205 colon
SNB-75 CNS = tested on: SNB-75 CNS
A498 renal = tested on: A498 renal
SN12C renal = tested on: SN12C renal
SK-OV-3 ovarian = tested on: SK-OV-3 ovarian
A549 NSCLC = tested on: A549 NSCLC
CAKI-1 renal = tested on: CAKI-1 renal
MDA-MB-231 breast = tested on: MDA-MB-231 breast
HS 578T breast = tested on: HS 578T breast
T-47D breast = tested on: T-47D breast
SR leukemia = tested on: SR leukemia
RPMI-8226 leukemia = tested on: RPMI-8226 leukemia

## c1ccc(Nc2nnc(-c3ccccc3Nc3ccccc3-c3nnc(Nc4ccccc4)s3)s2)cc1
OVCAR-3 ovarian
  TGI: > 100 µM
MDA-N
  TGI: > 100 µM
KM12 colon
  TGI: > 100 µM
786-0 renal
  TGI: > 100 µM
NCI-H23 lung
  TGI: > 100 µM
HT29 colon
  TGI: > 100 µM
SF-295 CNS
  TGI: > 100 µM
UACC-257 melanoma
  TGI: > 100 µM
TK-10 renal
  TGI: > 100 µM
OVCAR-8 ovarian
  TGI: > 100 µM
UACC-62 melanoma
  TGI: > 100 µM
BT-549 breast
  TGI: > 100 µM
NCI/ADR-RES ovarian
  TGI: > 100 µM
SNB-19 CNS
  TGI: > 100 µM
MCF7 breast
  TGI: > 100 µM
K-562 leukemia
  TGI: > 100 µM
OVCAR-5 ovarian
  TGI: > 100 µM
LOX IMVI melanoma
  TGI: > 100 µM
HCC-2998 colon
  TGI: > 100 µM
MOLT-4 leukemia
  TGI: > 100 µM
SK-MEL-28 melanoma
  TGI: > 100 µM
NCI-H226 lung
  TGI: > 100 µM
SK-MEL-2 melanoma
  TGI: > 100 µM
SW-620 colon
  TGI: > 100 µM
NCI-H522 lung
  TGI: > 100 µM
DU-145 prostate
  TGI: > 100 µM
EKVX NSCLC
  TGI: > 100 µM
M14 melanoma
  TGI: > 100 µM
MDA-MB-435
  TGI: > 100 µM
HCT-15 colon
  TGI: > 100 µM
RXF 393 renal
  TGI: > 100 µM
SF-268 CNS
  TGI: > 100 µM
SK-MEL-5 melanoma
  TGI: > 100 µM
MALME-3M melanoma
  TGI: > 100 µM
NCI-H460 lung
  TGI: > 100 µM
HL-60(TB) leukemia
  TGI: > 100 µM
SF-539 CNS
  TGI: > 100 µM
HOP-62 NSCLC
  TGI: > 100 µM
OVCAR-4 ovarian
  TGI: > 100 µM
HOP-92 NSCLC
  TGI: > 100 µM
U251 CNS
  TGI: > 100 µM
HCT-116 colon
  TGI: > 100 µM
UO-31 renal
  TGI: > 100 µM
PC-3 prostate
  TGI: > 100 µM
IGROV1 ovarian
  TGI: > 100 µM
CCRF-CEM leukemia
  TGI: > 100 µM
ACHN renal
  TGI: > 100 µM
COLO 205 colon
  TGI: > 100 µM
SNB-75 CNS
  TGI: > 100 µM

## Nc1ncnc2c1ncn2C1OC(F)(COS(N)(=O)=O)C(O)C1O (stereo not given)
OVCAR-3 ovarian
  GI50: > 100 µM
  TGI: > 100 µM
A498 renal
  GI50: > 100 µM
  TGI: > 100 µM
KM12 colon
  GI50: > 100 µM
  TGI: > 100 µM
SN12C renal
  GI50: > 100 µM
  TGI: > 100 µM
786-0 renal
  GI50: > 100 µM
  TGI: > 100 µM
NCI-H23 lung
  GI50: > 100 µM
  TGI: > 100 µM
HT29 colon
  GI50: > 100 µM
  TGI: > 100 µM
SK-OV-3 ovarian
  GI50: > 100 µM
  TGI: > 100 µM
SF-295 CNS
  GI50: > 100 µM
  TGI: > 100 µM
UACC-257 melanoma
  GI50: > 100 µM
  TGI: > 100 µM
TK-10 renal
  GI50: > 100 µM
  TGI: > 100 µM
OVCAR-8 ovarian
  GI50: > 100 µM
  TGI: > 100 µM
UACC-62 melanoma
  GI50: > 100 µM
  TGI: > 100 µM
BT-549 breast
  GI50: > 100 µM
  TGI: > 100 µM
NCI/ADR-RES ovarian
  GI50: > 100 µM
  TGI: > 100 µM
SNB-19 CNS
  GI50: > 100 µM
  TGI: > 100 µM
MCF7 breast
  GI50: > 100 µM
  TGI: > 100 µM
K-562 leukemia
  GI50: > 100 µM
  TGI: > 100 µM
OVCAR-5 ovarian
  GI50: > 100 µM
  TGI: > 100 µM
LOX IMVI melanoma
  GI50: > 100 µM
  TGI: > 100 µM
A549 NSCLC
  GI50: > 100 µM
  TGI: > 100 µM
HCC-2998 colon
  GI50: > 100 µM
  TGI: > 100 µM
MOLT-4 leukemia
  GI50: > 100 µM
  TGI: > 100 µM
SK-MEL-28 melanoma
  GI50: > 100 µM
  TGI: > 100 µM
NCI-H226 lung
  GI50: > 100 µM
  TGI: > 100 µM
CAKI-1 renal
  GI50: > 100 µM
  TGI: > 100 µM
SK-MEL-2 melanoma
  GI50: > 100 µM
  TGI: > 100 µM
SW-620 colon
  GI50: > 100 µM
  TGI: > 100 µM
NCI-H522 lung
  GI50: > 100 µM
  TGI: > 100 µM
DU-145 prostate
  GI50: > 100 µM
  TGI: > 100 µM
EKVX NSCLC
  GI50: > 100 µM
  TGI: > 100 µM
M14 melanoma
  GI50: > 100 µM
  TGI: > 100 µM
MDA-MB-231 breast
  GI50: > 100 µM
  TGI: > 100 µM
MDA-MB-435
  GI50: > 100 µM
  TGI: > 100 µM
HS 578T breast
  GI50: > 100 µM
  TGI: > 100 µM
HCT-15 colon
  GI50: > 100 µM
  TGI: > 100 µM
RXF 393 renal
  GI50: 97.9 µM
  TGI: > 100 µM
T-47D breast
  GI50: > 100 µM
  TGI: > 100 µM
SR leukemia
  GI50: > 100 µM
  TGI: > 100 µM
SF-268 CNS
  GI50: > 100 µM
  TGI: > 100 µM
SK-MEL-5 melanoma
  GI50: > 100 µM
  TGI: > 100 µM
MALME-3M melanoma
  GI50: > 100 µM
  TGI: > 100 µM
NCI-H460 lung
  GI50: > 100 µM
  TGI: > 100 µM
HL-60(TB) leukemia
  GI50: > 100 µM
  TGI: > 100 µM
SF-539 CNS
  GI50: > 100 µM
  TGI: > 100 µM
HOP-62 NSCLC
  GI50: > 100 µM
  TGI: > 100 µM
OVCAR-4 ovarian
  GI50: > 100 µM
  TGI: > 100 µM
HOP-92 NSCLC
  GI50: 36.3 µM
  TGI: > 100 µM
U251 CNS
  GI50: > 100 µM
  TGI: > 100 µM
HCT-116 colon
  GI50: > 100 µM
  TGI: > 100 µM
UO-31 renal
  GI50: > 100 µM
  TGI: > 100 µM
PC-3 prostate
  GI50: > 100 µM
  TGI: > 100 µM
RPMI-8226 leukemia
  GI50: > 100 µM
  TGI: > 100 µM
IGROV1 ovarian
  GI50: > 100 µM
  TGI: > 100 µM
CCRF-CEM leukemia
  GI50: > 100 µM
  TGI: > 100 µM
ACHN renal
  GI50: > 100 µM
  TGI: > 100 µM
COLO 205 colon
  GI50: > 100 µM
  TGI: > 100 µM
SNB-75 CNS
  GI50: > 100 µM
  TGI: > 100 µM

Source: PubChem BioAssay (NCI)
